The results in this text go back to article PMC8191784 (2021).

Assay [1] concerns wild-type add aptamer, vector P2-P3 (L2-L3) (RNA, riboswitch, 5-aminoallyl-U at the two dye sites (underlined positions not given)) GCGCGAGCGUUGUAUAAUCCUAAUGAUAUGGUUUGGGAGUUUCUACCAAGAGCCUUAAACUCUUGAUUACAACGCUCGCGC
Nature of the assay: smFRET.

For assay [2], the system named is L2 mutant (U28A, A29U, G31C, G32C), vector P2-P3 (L2-L3) (RNA, riboswitch, 5-aminoallyl-U at the two dye sites (underlined positions not given)) GCGCGAGCGUUGUAUAAUCCUAAUGAAUUCCUUUGGGAGUUUCUACCAAGAGCCUUAAACUCUUGAUUACAACGCUCGCGC
Nature of the assay: smFRET. Conditions: 10 mM Tris-HCl pH 8.0.

For assay [3], the system named is L3 mutant, vector P2-P3 (L2-L3) (RNA, riboswitch, 5-aminoallyl-U at the two dye sites (underlined positions not given)) GCGCGAGCGUUGUAUAAUCCUAAUGAUAUGGUUUGGGAGUUUCUACCAAGAGGGUAUAACUCUUGAUUACAACGCUCGCGC
Description: smFRET. Conditions: Na+, Mg2+ (see Figure S3); 10 mM Tris-HCl pH 8.0.

Assay [4] relates to L2 mutant, vector P1-P3 (RNA, riboswitch, 5-aminoallyl-U at the two dye sites (underlined positions not given)) GCGCGAGCGUUGUAUAAUCCUAAUGAAUUCCUUUGGGAGUUUCUACCAAGAGCCUUAAACUCUUGAUUACAACGCUCGCGC
Nature of the assay: smFRET. Conditions: 10 mM NaCl, 10 mM MgCl2; 10 mM Tris-HCl pH 8.0; 1 mM DAP.

In assay [5] the test system is wild-type add aptamer, vector P1-P2 (RNA, riboswitch, 5-aminoallyl-U at the two dye sites (underlined positions not given)) GCGCGAGCGUUGUAUAAUCCUAAUGAUAUGGUUUGGGAGUUUCUACCAAGAGCCUUAAACUCUUGAUUACAAUGCUCGCGC
Description: smFRET. Conditions: 10 mM NaCl, 10 mM MgCl2; 10 mM Tris-HCl pH 8.0; 1 mM DAP.

Assay [6] relates to L2 mutant, vector P1-P2 (RNA, riboswitch, 5-aminoallyl-U at the two dye sites (underlined positions not given)) GCGCGAGCGUUGUAUAAUCCUAAUGAAUUCCUUUGGGAGUUUCUACCAAGAGCCUUAAACUCUUGAUUACAAUGCUCGCGC
Nature of the assay: smFRET. Conditions: 10 mM NaCl, 10 mM MgCl2; 10 mM Tris-HCl pH 8.0; 1 mM DAP.

For assay [7], the system named is wild-type add aptamer, vector J2/3-P1 (core-P1) (RNA, riboswitch, 5-aminoallyl-U at residue 42 (aptamer numbering) and at a P1 site (position not visible)) GCGCGAGCGUUGUAUAAUCCUAAUGAUAUGGUUUGGGAGUUUCUACCAAGAGCCUUAAACUCUUGAUUACAACGCUCGCGC
Nature of the assay: smFRET. Conditions: 10 mM NaCl, 10 mM MgCl2; 10 mM Tris-HCl pH 8.0; 1 mM DAP.

In assay [8] the test system is L2 mutant, vector J2/3-P1 (core-P1) (RNA, riboswitch, 5-aminoallyl-U at residue 42 (aptamer numbering) and at a P1 site (position not visible)) GCGCGAGCGUUGUAUAAUCCUAAUGAAUUCCUUUGGGAGUUUCUACCAAGAGCCUUAAACUCUUGAUUACAACGCUCGCGC
Description: smFRET. Conditions: 10 mM NaCl, 10 mM MgCl2; 10 mM Tris-HCl pH 8.0; 1 mM DAP.

The subject of assay [9] is wild-type add aptamer, SHAPE transcript (RNA, riboswitch) GCGCUUCAUAUAAUCCUAAUGAUAUGGUUUGGGAGUUUCUACCAAGAGCCUUAAACUCUUGAUUAUGAAGUAAUUUAUCGUCACGGUGCAUCUACCAUC
Nature of the assay: SHAPE (NMIA) probing. Conditions: NaCl, 0-10 mM MgCl2; K-HEPES pH 8.0, 37 °C; 2 mM DAP.

Assay [10] deals with L2 mutant aptamer, SHAPE transcript (RNA, riboswitch) GCGCUUCAUAUAAUCCUAAUGAAUUCCUUUGGGAGUUUCUACCAAGAGCCUUAAACUCUUGAUUAUGAAGUAAUUUAUCGUCACGGUGCAUCUACCAUC
Nature of the assay: SHAPE (NMIA) probing. Conditions: NaCl, 0-10 mM MgCl2; K-HEPES pH 8.0, 37 °C; 2 mM DAP.

Structures are written as SMILES.

Consider `Nc1ncnc2[nH]cnc12`, for which the binding result in assay [1] (200 mM NaCl, 3 M urea, adenine titration) is given as “yes”; in assay [2] (Na+, Mg2+ (see Figure S2), adenine concentration varied) it was “yes”.

`Nc1nc(N)c2[nH]cnc2n1`: the binding entry was “yes” in [1] (10 mM NaCl, 10 mM MgCl2, 10 mM Tris-HCl pH 8.0, 1 mM DAP, FRET same as Mg2+ alone); “no” in [2] (10 mM Na+, no Mg2+, aptamer stays in U state without Mg2+); “yes” in [2] (10 mM NaCl, 10 mM MgCl2, 1 mM DAP); “yes” in assay [3]; “yes” in [4]; “yes” in assay [5]. In addition, the binding entry in [6], in [7], in [8], in assay [9] and in assay [10] was “yes” in each case.
